Test results taken from ChEMBL document CHEMBL5150006, “Inhibition of Histone Deacetylase 6 (HDAC6) as a therapeutic strategy for Alzheimer's disease: A review (2010-2020)” (Eur J Med Chem, 2021).
Values belong to the compound of their own block, whether it stands above or below them.

Tests used:
[1] = Half life in mouse plasma measured for 5 to 60 mins by HPLC/MS/MS analysis; type: ADME, cell-free; details: time 5-60 min
[2] = in vivo; details: mouse, brain and plasma
[3] = target: Glutamate [NMDA] receptor; assay: Binding affinity to NMDAR (unknown origin) assessed as inhibition constant by [3H]MK-801 binding assay; type: protein-complex assay, Homo sapiens
[4] = target: T1, Protein deacetylase HDAC6 (Homo sapiens, UniProt Q9UBN7); assay: Inhibition of HDAC6 in human HeLa cells measured after 2 hrs by Western blot analysis; type: cell-based
T1 sequence (Q9UBN7 whole entry): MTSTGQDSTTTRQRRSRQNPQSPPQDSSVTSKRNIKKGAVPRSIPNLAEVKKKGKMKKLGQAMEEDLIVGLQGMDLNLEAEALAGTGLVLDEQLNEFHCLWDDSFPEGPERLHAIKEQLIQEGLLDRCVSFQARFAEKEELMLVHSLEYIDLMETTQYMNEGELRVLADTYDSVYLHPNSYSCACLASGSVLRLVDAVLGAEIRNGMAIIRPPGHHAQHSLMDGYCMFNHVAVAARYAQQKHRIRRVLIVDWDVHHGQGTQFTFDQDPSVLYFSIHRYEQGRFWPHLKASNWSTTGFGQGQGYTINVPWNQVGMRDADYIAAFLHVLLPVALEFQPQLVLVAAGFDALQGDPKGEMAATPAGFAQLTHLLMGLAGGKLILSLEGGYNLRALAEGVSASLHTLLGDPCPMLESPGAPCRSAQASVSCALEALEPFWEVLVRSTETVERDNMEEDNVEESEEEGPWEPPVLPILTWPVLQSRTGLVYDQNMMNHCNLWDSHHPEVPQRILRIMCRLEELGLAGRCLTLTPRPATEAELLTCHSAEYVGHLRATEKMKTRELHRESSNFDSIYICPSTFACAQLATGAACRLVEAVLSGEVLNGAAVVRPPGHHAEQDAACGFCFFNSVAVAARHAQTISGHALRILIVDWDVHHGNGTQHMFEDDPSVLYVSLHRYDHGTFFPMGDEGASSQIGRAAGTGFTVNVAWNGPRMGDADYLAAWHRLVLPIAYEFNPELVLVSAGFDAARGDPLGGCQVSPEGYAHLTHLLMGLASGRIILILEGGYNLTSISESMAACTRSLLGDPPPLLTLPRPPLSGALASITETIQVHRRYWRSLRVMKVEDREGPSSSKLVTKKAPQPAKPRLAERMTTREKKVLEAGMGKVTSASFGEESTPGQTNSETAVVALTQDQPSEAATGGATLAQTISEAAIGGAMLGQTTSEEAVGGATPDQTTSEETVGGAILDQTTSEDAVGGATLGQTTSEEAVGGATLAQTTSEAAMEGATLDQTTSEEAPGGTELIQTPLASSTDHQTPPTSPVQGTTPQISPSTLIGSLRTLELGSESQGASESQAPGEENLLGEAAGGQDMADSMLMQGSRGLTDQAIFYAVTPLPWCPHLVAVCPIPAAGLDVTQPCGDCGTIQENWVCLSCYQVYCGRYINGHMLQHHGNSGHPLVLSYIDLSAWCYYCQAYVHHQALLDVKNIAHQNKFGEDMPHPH

[5] = target: T1, Protein deacetylase HDAC6; assay: Inhibition of HDAC6 (unknown origin) by microtiter plate reader analysis
[6] = target: High affinity cGMP-specific 3',5'-cyclic phosphodiesterase 9A (Homo sapiens, UniProt O76083); assay: Inhibition of PDE9 in human SH-SY5Y cells measured after 2 hrs by Western blot analysis; type: cell-based
[7] = target: T1, Protein deacetylase HDAC6; assay: Inhibition of HDAC6 in human SH-SY5Y cells measured after 2 hrs by Western blot analysis; type: cell-based

Chain of High affinity cGMP-specific 3',5'-cyclic phosphodiesterase 9A (O76083 whole entry): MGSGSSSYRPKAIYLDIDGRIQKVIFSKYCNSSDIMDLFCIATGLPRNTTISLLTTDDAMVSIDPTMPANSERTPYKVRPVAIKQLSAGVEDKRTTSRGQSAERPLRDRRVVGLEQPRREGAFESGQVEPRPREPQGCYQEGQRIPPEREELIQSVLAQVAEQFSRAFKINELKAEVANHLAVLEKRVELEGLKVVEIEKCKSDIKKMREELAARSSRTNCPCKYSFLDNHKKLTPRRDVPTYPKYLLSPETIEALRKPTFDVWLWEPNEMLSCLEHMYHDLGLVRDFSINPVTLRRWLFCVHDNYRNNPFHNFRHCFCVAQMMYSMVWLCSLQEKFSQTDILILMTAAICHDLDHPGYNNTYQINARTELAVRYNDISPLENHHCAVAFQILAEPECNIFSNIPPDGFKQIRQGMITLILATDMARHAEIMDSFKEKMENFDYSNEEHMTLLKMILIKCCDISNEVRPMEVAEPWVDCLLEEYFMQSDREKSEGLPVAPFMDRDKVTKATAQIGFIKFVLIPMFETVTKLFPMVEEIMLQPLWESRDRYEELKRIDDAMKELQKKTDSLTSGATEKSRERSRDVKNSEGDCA

SMILES: CC12CC3CC(C)(C1)CC(NC(=O)/C=C/c1ccc(C(=O)NO)cc1)(C3)C2
Ki [3]: 590 nM | IC50 [4]: 180 nM

SMILES: CCN(CC)c1ccc(C(=O)NCCCCCCC(=O)NO)cc1
IC50 [5]: 0.0095 nM

SMILES: CN1CCc2c(c3ccccc3n2Cc2ccc(C(=O)NO)cc2)C1 [TUBASTATIN A]
Kp [2]: 1.22

The next lines start with the values.

half-life [1]: 12 min
SMILES: O=C(NO)c1cnc(NC2(c3ccccc3)CC2)nc1

Kp [2]: 1.26 | half-life [1]: 30 min
SMILES: O=C(NO)c1cnc(NC2(c3cccc(F)c3)CCCCC2)nc1

IC50 [6]: 40 nM | IC50 [7]: 107 nM
SMILES: C[C@@H]1CN(Cc2ccc(C(=O)NO)cc2)C[C@H]1c1nc2c(cnn2C2CCCC2)c(=O)[nH]1
